Literature values in patent US10385093B2, “Estrogen receptor imaging agents” (Northeastern University, priority 2012, dated 2019).

What was measured:
[1] = plasma of patients
ER = conditions: binding to ER in target tissues
[2] = target: T1, steroid hormone binding globulin (SHBG) (Homo sapiens, UniProt P04278)
T1 construct: host or cells: circulating plasma
T1 sequence (P04278 30-402): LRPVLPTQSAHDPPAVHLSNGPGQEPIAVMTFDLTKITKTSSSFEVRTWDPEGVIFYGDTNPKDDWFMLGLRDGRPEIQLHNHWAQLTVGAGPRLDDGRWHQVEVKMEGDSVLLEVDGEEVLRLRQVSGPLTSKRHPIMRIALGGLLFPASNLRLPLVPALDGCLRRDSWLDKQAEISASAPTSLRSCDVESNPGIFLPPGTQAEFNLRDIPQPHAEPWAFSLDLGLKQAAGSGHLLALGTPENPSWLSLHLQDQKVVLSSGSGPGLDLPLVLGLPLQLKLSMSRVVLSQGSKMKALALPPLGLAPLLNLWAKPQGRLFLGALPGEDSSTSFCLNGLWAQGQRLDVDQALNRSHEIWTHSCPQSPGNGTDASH

[3] = rats, by 60 minutes after injection
[4] = small animal studies

Structure (SMILES): C[C@]12CC[C@@H]3c4ccc(O)cc4CC[C@H]3[C@@H]1C[C@@H](F)[C@@H]2O [FES, [^18F]-16α-fluoroestradiol]
- radioactivity in plasma that is parent FES [1]: less than 20%
- relative binding affinity (RBA) (ER): 80%
- FES in circulating plasma complexed with SHBG [2]: ≤ 45%
- circulating radioactivity due to [18F]-FES [3]: less than 15%

Structure (SMILES): CO[C@H]1C[C@]2(C)[C@@H](O)[C@H]([18F])C[C@H]2[C@@H]2CCc3c(ccc(O)c3F)[C@H]21 [4FMFES, 4-Fluoro-11β-methoxy-16α-[^18F]-flouroestradiol]
- selectivity uptake ratios compared with [^18F]-ES [4]: higher selectivity uptake ratios
